Measured values from ChEMBL document CHEMBL4610045, “Selective acetylcholinesterase inhibitors derived from muscle relaxant dantrolene” (Bioorg Med Chem Lett, 2020).
Structures can show the parent of a compound that is named as a salt. The source made the active and inactive calls. The calls are words filed in the database; no cut-off is given here.

Assays:
Acetylcholinesterase [1] = biological target: T1, Acetylcholinesterase (Homo sapiens, UniProt P22303); assay: Inhibition of AChE (unknown origin) using acetylthiocholine iodide as substrate by Ellman's method
T1 sequence (P22303 whole entry): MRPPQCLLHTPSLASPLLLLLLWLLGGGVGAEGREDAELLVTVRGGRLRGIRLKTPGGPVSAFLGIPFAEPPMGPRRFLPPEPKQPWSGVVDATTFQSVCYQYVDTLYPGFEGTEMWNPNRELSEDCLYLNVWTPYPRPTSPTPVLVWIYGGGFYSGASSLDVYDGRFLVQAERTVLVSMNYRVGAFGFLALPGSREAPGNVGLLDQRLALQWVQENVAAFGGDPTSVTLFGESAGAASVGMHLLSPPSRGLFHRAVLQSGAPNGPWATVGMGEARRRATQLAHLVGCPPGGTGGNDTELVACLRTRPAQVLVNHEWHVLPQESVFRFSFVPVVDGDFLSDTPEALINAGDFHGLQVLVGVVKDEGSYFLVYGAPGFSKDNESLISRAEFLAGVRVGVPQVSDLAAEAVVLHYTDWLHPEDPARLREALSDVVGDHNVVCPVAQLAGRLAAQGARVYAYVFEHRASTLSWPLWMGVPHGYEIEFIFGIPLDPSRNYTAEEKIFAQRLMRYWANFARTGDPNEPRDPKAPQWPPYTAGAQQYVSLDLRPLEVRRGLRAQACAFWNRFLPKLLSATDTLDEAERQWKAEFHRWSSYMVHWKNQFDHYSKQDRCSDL

[2] = biological target: T2, BuChE (butyrylcholinesterase) (Homo sapiens, UniProt P06276); assay: (§1) Inhibition of BuChE (unknown origin) at 1 uM relative to control
T2 sequence (P06276 whole entry): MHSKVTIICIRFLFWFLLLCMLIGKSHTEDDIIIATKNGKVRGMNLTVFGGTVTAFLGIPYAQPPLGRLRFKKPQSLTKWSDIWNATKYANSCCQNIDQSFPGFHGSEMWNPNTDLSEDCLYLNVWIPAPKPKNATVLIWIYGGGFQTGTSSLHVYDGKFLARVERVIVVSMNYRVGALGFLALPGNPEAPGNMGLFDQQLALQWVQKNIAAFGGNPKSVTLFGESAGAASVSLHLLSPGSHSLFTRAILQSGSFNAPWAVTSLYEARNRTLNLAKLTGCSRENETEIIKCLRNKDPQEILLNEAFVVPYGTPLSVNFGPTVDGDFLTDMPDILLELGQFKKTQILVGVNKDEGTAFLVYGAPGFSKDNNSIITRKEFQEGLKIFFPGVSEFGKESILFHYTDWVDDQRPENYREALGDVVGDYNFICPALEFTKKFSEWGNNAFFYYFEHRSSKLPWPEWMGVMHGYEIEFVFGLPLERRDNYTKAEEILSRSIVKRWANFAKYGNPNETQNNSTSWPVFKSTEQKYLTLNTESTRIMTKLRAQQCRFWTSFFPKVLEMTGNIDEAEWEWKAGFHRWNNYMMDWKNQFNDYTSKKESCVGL

Acetylcholinesterase [3] = biological target: T1, Acetylcholinesterase; assay: Inhibition of AChE (unknown origin) at 1 uM using acetylthiocholine iodide as substrate by Ellman's method relative to control
Cholinesterase [4] = biological target: T3, Cholinesterase (Homo sapiens, UniProt P06276); assay: Inhibition of BuChE (unknown origin)
T3 sequence (P06276 whole entry): as above

Homo sapiens = organism: Homo sapiens; assay: Selectivity index, ratio of IC50 for BuChE (unknown origin) to IC50 for AChE (unknown origin) using acetylthiocholine iodide as substrate
Acetylcholinesterase [5] = biological target: T1, Acetylcholinesterase; assay: Non-competitive inhibition of AChE (unknown origin) at 100 to 200 nM using acetylthiocholine as substrate by Ellman's method based Lineweaver-Burk plot analysis
Cholinesterase [6] = biological target: T3, Cholinesterase; assay: as §1; settings: 1 µM
[7] = biological target: T2, BuChE (butyrylcholinesterase); assay: Inhibition of BuChE (unknown origin) at 20 nM relative to control

In the case of `COc1cccc(-c2ccc(/C=N/N3CC(=O)N(CCC4CCN(Cc5ccccc5)CC4)C3=O)o2)c1`, the IC50 (Acetylcholinesterase [1]) is reported as 47 nM and the inhibition at 1 µM [2] is reported as 3.8%.
`O=C1CN(/N=C/c2ccc(-c3ccc([N+](=O)[O-])cc3)o2)C(=O)N1CC1CCN(Cc2ccccc2)CC1` was tested, and the inhibition (Acetylcholinesterase [3]) was “inactive”.
In the case of `COc1ccccc1-c1ccc(/C=N/N2CC(=O)N(CCC3CCN(Cc4ccccc4)CC3)C2=O)o1`, the IC50 (Acetylcholinesterase [1]) is reported as 90.4 nM and the inhibition at 1 µM [2] is reported as 1.6%.
`O=C1CN(/N=C/c2ccc(-c3ccccc3[N+](=O)[O-])o2)C(=O)N1CCC1CCN(Cc2ccccc2)CC1` showed an IC50 (Acetylcholinesterase [1]) of 34.2 nM, an inhibition at 1 µM [2] of 14.6% and an IC50 (Cholinesterase [4]) of 4470 nM. The Ratio IC50 (Homo sapiens) was 130 and the inhibition (Acetylcholinesterase [5]) was “Active”.
For `O=C1CN(/N=C/c2ccc(-c3ccc([N+](=O)[O-])cc3)o2)C(=O)N1CCC1CCN(Cc2ccccc2)CC1`, the inhibition (Acetylcholinesterase [3]) was 91.3%, the IC50 (Acetylcholinesterase [1]) was 46.4 nM and the “inhibition (INH)” value (Cholinesterase [6]) was “Not Active”.
With `O=C1CN(/N=C/c2ccc(-c3ccc([N+](=O)[O-])cc3)o2)C(=O)N1CCN1CCN(Cc2ccccc2)CC1` the inhibition (Acetylcholinesterase [3]) was 67.9%, the IC50 (Acetylcholinesterase [1]) was 201 nM and the “inhibition (INH)” value (Cholinesterase [6]) was “Not Active”.
For `O=C1CN(/N=C/c2ccc(-c3ccc([N+](=O)[O-])cc3)o2)C(=O)N1`, the inhibition (Acetylcholinesterase [3]) was “inactive”.
With `Nc1c2c(nc3ccccc13)CCCC2` [TACRINE HYDROCHLORIDE] the inhibition at 0.02 µM [7] was 64.5%.
In the case of `O=C1CN(/N=C/c2ccc(-c3cccc([N+](=O)[O-])c3)o2)C(=O)N1CCC1CCN(Cc2ccccc2)CC1`, the IC50 (Acetylcholinesterase [1]) is reported as 290 nM and the “inhibition (INH)” value (Cholinesterase [6]) is reported as “Not Active”.
`COc1ccc(-c2ccc(/C=N/N3CC(=O)N(CCC4CCN(Cc5ccccc5)CC4)C3=O)o2)cc1` showed an IC50 (Acetylcholinesterase [1]) of 108 nM and an inhibition at 1 µM [2] of 4.6%.
